We go through eight compounds from PMC5301048, “Selection and early clinical evaluation of the brain‐penetrant 11β‐hydroxysteroid dehydrogenase type 1 (11β‐HSD1) inhibitor UE2343 (Xanamem™)” (British Journal of Pharmacology, 2017).

In general, bioavailability refers to the share of a dose that reaches the circulation, judged against a reference dose that is usually intravenous. In general, half-life refers to the time in which the quantity being followed falls by half. High values mean slow loss, low ones fast loss. One may read the solubility as the dissolved amount per volume that the medium holds. A low value points to little dissolved substance. Broadly, the Cmax is the peak of the concentration-time curve. In general, IC50 refers to the midpoint of a concentration-inhibition curve. What is called AUC is the area under the concentration-time curve, a measure of exposure.

The nature of one series: in vivo. Particulars: male, Sprague Dawley, rat. On the procedure: Pharmacokinetic studies were carried out at Quotient Bioresearch, UK. For both i.v. and p.o. administration, compounds were prepared in 0.9% saline containing 2% DMSO (v^.v^‐1) and 38% PEG400 (v^.v^‐1). Solutions were passed through 0.22 μm filters prior to administration. Animals were given ad libitum access to food and water throughout the study. For i.v. administration three male Sprague Dawley rats each received 1 mg·kg^−1 of compound by tail vein injection (dose volume 5 mL·kg^−1). Serial blood samples were taken from a lateral tail vein 5, 15, 30 min, 1, 2, 4, 6 and 8 h post i.v. administration, and stored in individual EDTA containers. Blood samples were flash frozen in liquid nitrogen and stored at −20°C prior to analysis. For p.o. administration, five male Sprague Dawley rats were dosed with compound at 5 mg·kg^−1 (dose volume 10 mL·kg^−1). Serial blood samples were taken from a lateral tail vein 15, 30 min, 1, 2, 4, 6 and 8 h post p.o. administration, and stored in individual EDTA containers. Blood samples were flash frozen in liquid nitrogen and stored at −20°C prior to analysis. Blood samples were thawed at ambient temperature and vortex mixed thoroughly. A representative aliquot of each blood sample was diluted 1:1 v^.v^‐1 with HPLC grade water prior to protein precipitation with acetonitrile containing diazepam internal standard (blood/water: acetonitrile ratio was 1:4 v^ v^‐1). Following vortex mixing and centrifugation (4°C, 15 min, 17 000 x g) a 100 μL aliquot of supernatant was diluted by addition of 50 μL HPLC grade water in a well of a 96‐well midi‐eppendorf plate. The plate was sealed and shaken on a plate shaker to ensure sample homogeneity. Samples were assayed against a series of matrix matched calibration curve standards by LC–MS/MS using a Sciex 3000 mass spectrometer. Pharmacokinetic parameters were derived by non‐compartmental analysis using WinNonLin pharmacokinetic software.

A short description of series [1]: Aqueous solubility at pH 7.4. The format is physicochemical. Conditions: thermodynamic from solid, pH 7.4, room temperature, mean ± SD [n]. The protocol: The concentration was quantified by HPLC with reference to a standard calibration curve. The solubility was calculated using the peak areas determined by integration of the peak found at the same retention time as the principal peak in the standard injection.

Series [2] is described as follows: Plasma protein binding, human plasma. Format: in vitro ADME. Particulars: for Plasma protein binding (% unbound), human: mean ± SD [n]. On the procedure:
Plasma protein binding was determined using pooled human plasma according to the method described in WO2011135276 (Webster et al., 2011a).

Series [3] is described as follows: Tissue exposure measurements in rats (plasma and brain). Format: in vivo. Particulars: rat; for Kp / Cmax: male, Sprague Dawley; for Cmax: plasma; for Cmax / Brain Cmax / Plasma Cmax: mean ± SD. On the procedure: The circulating plasma levels and tissue distribution of compounds were determined according to the method described in WO2011135276 (Webster et al., 2011a). Animals were group‐housed, had free access to food and water and were maintained in accordance with UK Home Office regulations. The animal work was conducted under UK Home Office Project Licence no. PPL 60/3915.
Compounds were prepared in 0.9% saline containing 2% DMSO (v^.v^‐1) and 38% PEG400 (v^.v^‐1) and administered to male Sprague Dawley rats by oral gavage such that the final concentration of compound was 10 mg·kg^−1. Rats (n = 3 per time point) were killed by decapitation at 1, 4 and 6 h post dosing, and trunk blood and tissues (liver, adipose and brain) were excised. Blood samples at 0.5 and 2 h post dosing were taken by a tail nick from the 4 and 6 h rats respectively.
Compounds were triple extracted from plasma (prepared from blood by a high speed centrifugation step) and spiked with 1 μg of a standard compound using ethyl acetate. Extracts were dried under nitrogen and re‐suspended in 60% methanol/40% ammonium acetate (5 mM).
A known weight of tissue was homogenized in 3 volumes of Krebs buffer. The compound was triple extracted with ethyl acetate from the supernatant of a low speed spin spiked with […] of a standard compound. Extracts were dried under nitrogen and re‐suspended in 60% methanol/40% ammonium acetate (5 mM).
Samples from plasma and tissue were analysed by TSQ Quantum Discovery Tandem Mass Spectrometer and Surveyor Liquid Chromatogram (Thermo, Hemel‐Hempstead, UK). Then 10 μL of each sample was injected in a mobile phase consisting of 60% methanol/40% ammonium acetate (5 mM) at a flow rate of 0.5 mL·min^−1. The column used was a BDS hypersil C18, 50 × 2.1 mm with a 5 μm particle size.
Each compound was tuned with a spray voltage of 3000 V and a capillary temperature of 300°C, and values for tube lens, CID and product ions were determined. The peak area for each compound and for the internal standard was determined, and the concentration of compound ^. g^‐1 of tissue or mL^‐1 of plasma was calculated by comparison of the peak area ratio to a standard curve.

Another series deals with T1, human 11β‐HSD1 (Homo sapiens, UniProt P28845).
T1 construct: a construct containing the full‐length gene coding for the human 11β‐HSD1 enzyme; expressed in transfected cells; host or cells: HEK293
T1 sequence (P28845 whole entry): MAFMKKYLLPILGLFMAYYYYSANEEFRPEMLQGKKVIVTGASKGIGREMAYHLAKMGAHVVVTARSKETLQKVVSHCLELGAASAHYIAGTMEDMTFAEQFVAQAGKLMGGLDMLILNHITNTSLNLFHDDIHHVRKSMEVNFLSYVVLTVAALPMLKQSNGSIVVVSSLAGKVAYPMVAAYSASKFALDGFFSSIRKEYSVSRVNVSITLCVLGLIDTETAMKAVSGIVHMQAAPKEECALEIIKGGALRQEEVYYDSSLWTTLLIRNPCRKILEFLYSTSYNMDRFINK
The series is described as follows: Inhibition of human 11β-HSD1 in stably transfected HEK293 cells. The format is cell-based. Conditions: HEK293 cells; mean ± SD [n]; read-out: Human 11β‐HSD1 IC50 in HEK293 cells. The protocol: Inhibition of human 11β‐HSD1 was determined in HEK293 cells stably transfected with a construct containing the full‐length gene coding for the human 11β‐HSD1 enzyme according to the protocol described by Sooy et al., 2010.

Series [4] in a line: Plasma protein binding, rat plasma. The format is in vitro ADME. Particulars: mean ± SD [n].
The nature of series [5]: Pharmacokinetics in dog (i.v. and p.o.). The format is in vivo. Particulars: Beagle, plasma. On the procedure:
Pharmacokinetic studies were carried out at Charles River, UK. For both i.v. and p.o. administration, compounds were prepared in 0.9% saline containing 2% DMSO (v^.v^‐1) and 38% PEG400 (v^.v^‐1). Solutions were passed through 0.22 μm filters prior to administration. Three Beagle dogs each received a single i.v. injection of compound 4 at a dose level of 1 mg·kg^−1. Following a washout period of 1 week, each animal received a single p.o. dose of compound 4 at a dose level of 5 mg·kg^−1.
After a washout period of 6 weeks, the same three dogs each received a single i.v. injection of compound 7 at a dose level of 1 mg·kg^−1. Following a washout period of 1 week, each animal received a single p.o. dose of compound 7 at a dose level of 5 mg·kg^−1.
Plasma samples were obtained up to 24 h post dose administration, and the concentration of each test item in plasma was determined using LC–MS/MS. Pharmacokinetic parameters were derived by non‐compartmental analysis using WinNonLin pharmacokinetic software.

The nature of series [6]: Plasma protein binding, dog plasma. Conditions: mean ± SD [n]. The format is in vitro ADME.
The target of a further series is T2, hERG K+ channel (Homo sapiens, UniProt Q12809).
T2 construct: Chinese hamster lung cell line stably expressing the full length hERG channel; host or cells: Chinese hamster lung cell line
T2 sequence (Q12809 whole entry): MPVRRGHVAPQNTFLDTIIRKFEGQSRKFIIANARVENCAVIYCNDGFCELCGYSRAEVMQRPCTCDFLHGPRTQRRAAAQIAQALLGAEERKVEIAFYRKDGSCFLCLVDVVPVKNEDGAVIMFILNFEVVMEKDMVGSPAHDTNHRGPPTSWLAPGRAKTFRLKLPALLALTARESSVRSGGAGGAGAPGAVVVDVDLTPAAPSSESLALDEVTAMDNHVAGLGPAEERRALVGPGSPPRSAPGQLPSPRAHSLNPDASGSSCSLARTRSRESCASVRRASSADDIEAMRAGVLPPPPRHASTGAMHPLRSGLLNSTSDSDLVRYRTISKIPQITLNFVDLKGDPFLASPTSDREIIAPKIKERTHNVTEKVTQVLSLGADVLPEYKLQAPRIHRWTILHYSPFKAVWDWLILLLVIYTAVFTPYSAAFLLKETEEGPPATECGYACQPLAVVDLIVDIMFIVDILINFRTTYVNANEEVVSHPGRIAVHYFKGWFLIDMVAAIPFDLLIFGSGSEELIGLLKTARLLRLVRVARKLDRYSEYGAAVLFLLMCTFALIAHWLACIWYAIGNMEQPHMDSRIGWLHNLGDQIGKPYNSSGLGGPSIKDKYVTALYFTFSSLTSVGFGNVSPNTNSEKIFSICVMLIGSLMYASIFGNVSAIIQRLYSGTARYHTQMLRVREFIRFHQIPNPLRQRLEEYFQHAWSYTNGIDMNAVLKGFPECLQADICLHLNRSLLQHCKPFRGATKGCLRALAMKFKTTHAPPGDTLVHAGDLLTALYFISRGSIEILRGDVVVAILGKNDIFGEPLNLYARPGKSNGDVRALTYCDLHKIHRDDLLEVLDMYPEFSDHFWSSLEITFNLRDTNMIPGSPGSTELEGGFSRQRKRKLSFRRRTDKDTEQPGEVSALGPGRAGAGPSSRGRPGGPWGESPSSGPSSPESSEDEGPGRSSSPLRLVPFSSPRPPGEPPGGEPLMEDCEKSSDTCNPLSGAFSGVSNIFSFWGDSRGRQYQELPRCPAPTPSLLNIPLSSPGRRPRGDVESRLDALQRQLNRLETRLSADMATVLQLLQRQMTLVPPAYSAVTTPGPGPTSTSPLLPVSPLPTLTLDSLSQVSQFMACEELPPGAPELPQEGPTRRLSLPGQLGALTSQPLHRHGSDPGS
The experiment in a line: hERG inhibition, IonWorks Quattro patch clamp. Format: cell-based. Conditions: Chinese hamster lung cells expressing hERG; mean ± SD [n]. On the procedure: Testing was performed by Essen Instruments, Hertfordshire, UK. Compounds were tested for inhibition of the human ether a go‐go related gene (hERG) K+ channel in a Chinese hamster lung cell line stably expressing the full length hERG channel. Single cell ionic currents were measured in the perforated patch clamp configuration at room temperature using an IonWorks Quattro instrument. Eight‐point concentration–response curves were generated using threefold serial dilutions from the maximum final assay concentration. IC50 values were obtained from a four‐parameter logistic fit of the % inhibition data.

A short description of series [7]: Microsomal stability, dog liver microsomes. Format: in vitro ADME. Particulars: mean ± SD [n]. On the procedure:
(§1) Microsomal stability was determined using pooled human, rat or dog liver microsomes according to the method described in WO2011135276 (Webster et al., 2011a).

Series [8] can be described thus: Microsomal stability, rat liver microsomes. The format is in vitro ADME. Particulars: mean ± SD [n]. On the procedure: as §1
In general terms: Microsomes from liver hold many membrane-bound enzymes, among them those of drug oxidation.

A short description of series [9]: Microsomal stability, human liver microsomes. Particulars: mean ± SD [n]. Format: in vitro ADME. The protocol:
as §1

[10] abbreviates: brain and plasma, po, 10 mg/kg, 10 mg·kg^−1 oral gavage, read-out: Brain : plasma ratio.
Setting [11] is: po, 10 mg/kg, 10 mg·kg^−1 oral gavage.

SMILES strings stand for the structures. ≈ marks a conversion by molar mass, not a printed value. Read-outs that look alike come from different tables or passages of the source.

In the series “in vivo”, `O=C(c1csc(-c2cn[nH]c2)c1)N1C2CCC1CC(O)(c1ccccc1)C2` (stereo not shown) [compound 1] showed a bioavailability of 23% and a half-life of 0.9 ± 0.1 h. The clearance in “in vivo” (iv, 1 mg/kg) is 34 ± 22 mL/min/kg. Also, the concentration in solution in series [1] (aqueous buffer) (solubility) was 6 µg/mL (≈ 15.8 µM). Moreover, the “Plasma protein binding (% unbound), human” value in [2] amounted to 10±0 % unbound. The Kp in series [3] (setting [10]) came out at 0.07. For the same compound, in series [3] (setting [11]), the Cmax is 419 ± 28 ng/mL. For the same compound, the “Brain Cmax” value in series [3] (10 mg·kg^−1 oral gavage) turned out to be 29 ± 10 ng/mL. For the same compound, at human 11β‐HSD1, the IC50 came out at 22 ± 2 nM.
`O=C(c1csc(-c2cn[nH]c2)c1)N1C2CCC1CC(O)(c1ccccn1)C2` (stereo not shown) [compound 2]: the Kp in series [3] (setting [10]) is 0.02. The Cmax in [3] (setting [11]) came out at 1270 ± 330 ng/mL. For the same compound, in [3] (10 mg·kg^−1 oral gavage), the “Brain Cmax” value was determined as 31 ± 12 ng/mL. Besides, the IC50 on human 11β‐HSD1 turned out to be 26 ± 8 nM.
In the same order, the values of `O=C(c1csc(-c2cn[nH]c2)c1)N1C2CCC1CC(O)(c1ncccc1Cl)C2` (stereo not shown) [compound 3] are 0.31, 115 ± 48 ng/mL, 36 ± 12 ng/mL and 12 nM.
In the same order, the values of `O=C(c1csc(-c2cn[nH]c2)c1)N1C2CCC1CC(O)(c1cnccn1)C2` (stereo not shown) [compound 5] are 0.03, 589 ± 161 ng/mL, 19 ± 17 ng/mL and 37 ± 3 nM.
Regarding `O=C(c1csc(-c2cn[nH]c2)c1)N1C2CCC1CC(F)(c1ccccn1)C2` (stereo not shown) [compound 6], in series [3] (10 mg·kg^−1 oral gavage), the “Brain : plasma ratio” value turned out to be 0.27, the “Brain Cmax” value turned out to be 108 ± 54 ng/mL and the “Plasma Cmax” value was found to be 399 ± 99 ng/mL. For the same compound, the IC50 on human 11β‐HSD1 stood at 22 ± 10 nM.
For `O=C(c1csc(-c2cn[nH]c2)c1)N1C2CCC1CC(F)(c1ccccn1)C2` (stereo not shown) [compound 7], the “Plasma protein binding (% unbound), rat” value in series [4] is 10 ± 1 [2] % unbound. The compound also gave a clearance in series [5] (iv, i.v. 1 mg·kg^−1, mean ± SD) of 8.68 ± 2.03 mL/min/kg. For the same compound, the half-life in series [5] (mean ± SD) is 3.21 ± 1.61 h. This compound also returned a Cmax in series [5] (po, p.o. 5 mg·kg^−1, mean ± SD) of 3100 ± 908 ng/mL. The AUC in [5] (po, p.o. 5 mg·kg^−1, mean ± SD, read-out: Oral AUC(0➔∞)) was 9210 ± 2000 ng·h/mL. For the same compound, in series [5] (po, p.o. 5 mg·kg^−1 vs i.v. 1 mg·kg^−1, mean ± SD), the bioavailability is 90 ± 40%. Moreover, in series [6], the “Plasma protein binding (% unbound), dog” value is 11 ± 0 [1] % unbound. For the same compound, in series [1] (aqueous phosphate buffer), the solubility came out at 6 µg/mL (≈ 15.7 µM). In addition, the figures for the IC50 against hERG K+ channel and on human 11β‐HSD1 were 3100 ± 600 nM and 7 ± 4 nM, respectively. In addition, the “Plasma protein binding (% unbound), human” value in series [2] is 11 ± 2 [2] % unbound. In addition, the “free fraction in plasma relative to the 3‐endo isomer (compound 6)” value in series [2] (species not stated, in words) was “twofold greater”. Besides, the Kp in series [3] (brain (relative to free plasma), oral, 10 mg·kg^−1, rat, rat plasma protein binding taken into account, read-out: brain : plasma free ratio) amounted to 2.45; in [3] (setting [10]) it was 0.24. In addition, the “Brain Cmax” value in series [3] (10 mg·kg^−1 oral gavage) was found to be 374 ± 184 ng/mL. Also, the “Plasma Cmax” value in series [3] (10 mg·kg^−1 oral gavage) amounted to 1526 ± 212 ng/mL. Besides, the “Liver microsomal stability (% parent at 30 min), dog” value in [7] was 74 ± 1 [3] % parent at 30 min. Further, the “Liver microsomal stability (% parent at 30 min), rat” value in series [8] is 45 ± 5 [3] % parent at 30 min. In [9], the “Liver microsomal stability (% parent at 30 min), human” value was 51 ± 3 [3] % parent at 30 min.
With `N#CC1(c2ccccn2)CC2CCC(C1)N2C(=O)c1csc(-c2cn[nH]c2)c1` (stereo not shown) [compound 8], the Kp in [3] (setting [10]) was 0.03. This compound displayed a Cmax in series [3] (setting [11]) of 291 ± 74 ng/mL. In series [3] (10 mg·kg^−1 oral gavage), the “Brain Cmax” value amounted to 9 ± 3 ng/mL. Moreover, at human 11β‐HSD1, the half-maximal inhibitory concentration (IC50) stood at 15 nM.
The matching figures for `N#CC1(c2ncccn2)CC2CCC(C1)N2C(=O)c1csc(-c2cn[nH]c2)c1` (stereo not shown) [compound 9]: 0.07, 230 ± 33 ng/mL, 15 ± 1 ng/mL and 13 ± 3 nM.
